Experimental data published in patent US5041535A, “Antileukemic and immunostimulant peptides” (Richter Gedeon Vegyeszeti Gyar Rt., priority 1986, dated 1991).
Square brackets hold non-standard residues; d marks the D form. Peptide text beside a SMILES is read from it. pGlu = O=C1CC[C@@H](C(=O)O)N1

How the values were obtained:
[1] = test system: human K-562 erythroleukaemical cell-line; assay: Inhibition of the proliferation of tumor cells (K-562); format: cell-based; conditions: 72nd hour after treatment, percentage of the control
Protocol: In the test human K-562 erythroleukaemical cell-line is used (Karolinska Institute, Stockholm). Incubation is carried out in a nutrient medium designated RPMI-1640 (manufactured by Flow, Great Britain) comprising 10% of foetal calf serum, at a temperature of 37° C., in a humidified incubator containing 3% of carbon dioxide, in plastic dishes. Every point of measurement corresponds to the average of the data measured in three dishes, each. At the beginning of the test the dilution amounts to 0.5×10^5 cells/ml. Treatment is carried out 24 hours after dilution in a manner that the medium is not changed after the treatment. The cells are counted for 96 hours after dilution every 24th hour wit the aid of a Buerker chamber.
Under the effect of the peptide in the 24th hour after treatment the cell number stagnates and later it increases to a very small extent. […] The tumor-cell division inhibiting effect of the new peptides is summarized in Table 1 (72 hours after treatment). The rate of inhibition is expressed in the percentage of the control. It clearly appears from the data of the Table that the tested peptides inhibit the proliferation of human K-562 erythroleukaemic cells.

[2] = test system: antibody production inhibited by cyclophosphamide; assay: Effect on antibody production in mice treated with cyclophosphamide; format: in vivo, CELP mice; conditions: cyclophosphamide 100 mg/kg i.p., titer on 6th day
Protocol: The effect on in vivo antibody production is tested on CELP mice treated with a 100 mg/kg body weight dose of cyclophosphamide {2-[bis-(2-chloroethyl)-amino]-tetrahydro-2H-1,3,2-oxaza -phosphorine-2-oxide; method: Z. Naturforsch. 35B, 1476 (1980)}. The mice are intraperitoneally immunized with a 1% sheep erythrocyte suspension previously washed three times with a 0.9% sodium chloride solution after 10 minutes of centrifuging at 2,500 r.p.m. Simultaneously with immunization carried out on the 0. day, the activity of the immune system is suppressed by means of treatment with a 100 mg/kg i.p. does of cyclophosphamide. On the 3rd day of the test the peptides are administered to the animals intraperitoneally in a dose of 5, 50 and occasionally 100 mg/kg respectively. On the 6th day of the test blood is taken retroorbitally from the mice and the anti-sheep erythrocyte titer of the serum is determined. […] The effect of the peptides is expressed as percentage of the relief of inhibition (G %).

[3] = test system: lymphocytes inhibited by Azathioprine; assay: E-rosetta test inhibited by Azathioprine; format: cell-based
Protocol: Inhibition of the proliferation of T-lymphocytes is tested in the E-rosetta test inhibited by Azathioprine [6-(1-methyl-4-nitroimidazole-5-yl-thio)-purine; Thymus 1, 195 (1980)].
To 200 μl of a healthy lymphocyte cell-suspension 500 μl/ml of Azathioprine and 200 μl of a separate dilution of the test compound in HBBS buffer (manufacturer: Flow, Great Britain) are added (concentration range: 10^-3 to […]). The mixture is incubated at a temperature of 37° C. in air containing 5% of carbon dioxide for 60 minutes, whereupon 200 μl of a 1% sheep erythrocyte suspension are added. The mixture thus-obtained is centrifuged at 1,000 r.p.m. for 5 minutes, the supernatant is removed by decanting and in the suspension the lymphocytes forming E-rosetta are counted under a microscope from at least 400 cells.
Under the effect of the peptides the E-rosetta forming activity of the lymphocytes inhibited by Azathioprine increases to different extent. […] It appears from the data of Table 2 that the tested peptides increase the E-rosetta forming capacity of inhibited lymphocytes, i.e. the peptides of the present invention show immunostimulant effect.

[4] = test system: inflammation induced by oxozolone; assay: Dermatitis test induced with oxazolone; format: in vivo, CFLP mice; conditions: 24th hour after treatment, ear weight increase
Protocol: In this test a modified pharmacological model of D. P. Evans et al. [Br. J. Pharmac. 43, 403-488 (1971)] is used.
The abdominal skin of male CFLP mice weighing 20-22 g is painted after the removal of the hair with 0.1 ml of a 2% solution of oxazolon (4-ethoxymethyl-2-phenyl-oxazoline, manufacturer Sigma) in sunflower oil. On the right ear of the test animals 7 days after sensitization (painting) inflammatory reaction is induced with the aid of 10 μl of a 2% acetonous oxazolone solution and simultaneously the animals are treated with a 1 or 2 mg/kg, respectively, i.p. does of the test compound. The test compound is dissolved in a physiological sodium chloride solution in such a concentration that the active ingredient content corresponding to the dose should be dissolved in a volume of 0.5 ml/10 g animal body weight.
The antiinflammatory effect is determined as follows: the animals are sacrificed in the 24th hour after treatment, whereupon the right and left ears are cut off. The percentual weight increase of the right ear related to the left ear is characteristic of the rate of inflammation induced during the test, while the percentual reduction of weight increase of the treated animals related to the untreated control is proportional to the antiinflammatory effect. In Table 4 the reduction of weight increase (antiinflammatory effect) achieved by the test compounds is disclosed, as the percentage of the untreated control.

[5] = peptide 5 mg/kg i.p. on 3rd day
[6] = peptide 50 mg/kg i.p. on 3rd day

SMILES	Inhibition of the proliferation of K-562 cells, inhibition (c %) ([1]; peptide 1/ug/ml) [%]	Inhibition of the proliferation of K-562 cells, inhibition (c %) ([1]; peptide 10/ug/ml) [%]	Restoration of primary immune answer, G % [2, 5] [%]	Restoration of primary immune answer, G % [2, 6] [%]	Relief of inhibition (R %) of E-rosetta forming activity ([3]; peptide 10^-3 mole/l) [%]	Relief of inhibition (R %) of E-rosetta forming activity ([3]; peptide 10^-5 mole/l) [%]	Relief of inhibition (R %) of E-rosetta forming activity ([3]; peptide 10^-7 mole/l) [%]	Relief of inhibition (R %) of E-rosetta forming activity ([3]; peptide 10^-9 mole/l) [%]	Relief of inhibition (R %) of E-rosetta forming activity ([3]; peptide 10^-11 mole/l) [%]	Inhibition of inflammation induced by oxozolone, inhibition as % of control ([4]; 1 mg/kg i.p.) [%]	Restoration of primary immune answer, G % ([2]; peptide 100 mg/kg i.p. on 3rd day) [%]	Inhibition of inflammation induced by oxozolone, inhibition as % of control ([4]; 2 mg/kg i.p.) [%]
N=C(N)NCCC[C@H](N)C(=O)N[C@@H](CCCCN)C(=O)N[C@@H](CCC(=O)O)C(=O)O [Peptide 5, Arg-Lys-GIu-OH] (H-Arg-Lys-Glu-OH)	40	48	61.5	76.9	24.5	24.6	24.7	24.0	27.5			
CC(C)[C@H](NC(=O)[C@H](CC(=O)O)NC(=O)[C@H](CCCCN)NC(=O)[C@@H](N)CCCN=C(N)N)C(=O)N[C@@H](Cc1ccc(O)cc1)C(=O)O [A, Arg--Lys--Asp--Val--Tyr, reference compound] (H-RKDVY-OH)		32			31.7	29.3	38.7	30.0	19.4			
CC(C)[C@H](NC(=O)[C@H](CC(=O)O)NC(=O)[C@H](CCCCN)NC(=O)[C@@H](N)CCCNC(=N)N)C(=O)O [B, Arg--Lys--Asp--Val, reference compound] (H-RKDV-OH)		4			35.4	35.4	46.4	32.5	34.0			
CC(C)C[C@H](N)C(=O)N1CCC[C@H]1C(=O)N[C@@H](C)C(=O)NCC(=O)O [Peptide 14, Leu-Pro AIa-Gly-OH] (H-LPAG-OH)	45	70	34.0	56.8						55		
NCCCC[C@H](NC(=O)[C@H](CCC(=O)O)NC(=O)[C@@H]1CCC(=O)N1)C(N)=O [Peptide 2, Glp-Glu-Lys-NH2] ([pGlu]-Glu-Lys-NH2)	40	55	23.0	3.0	25.4	20.2	31.7	24.3	37.1			
N=C(N)NCCC[C@H](N)C(=O)N[C@@H](CCCCN)C(=O)N[C@@H](CC(=O)O)C(N)=O [Peptide 4, Arg-Lys-Asp-NH2] (H-Arg-Lys-Asp-NH2)	25	50			29.7	30.0	18.7	23.9	18.5	27	28.5	
N=C(N)NCCC[C@H](N)C(=O)N[C@@H](CCCCN)C(=O)N[C@@H](CCC(=O)O)C(N)=O [Peptide 3, Arg-Lys-Glu-NH2] (H-Arg-Lys-Glu-NH2)	40	52	78.1	47.6	24.3	22.6	15.6	24.8	17.0			
CC(C)C[C@H](N)C(=O)N[C@H](C(=O)N[C@@H](C)C(=O)O)C(C)C [Peptide 7, Leu-VaI-AIa-OH] (H-Leu-Val-Ala-OH)	38	52	73.3	100.0								
NCCCC[C@H](NC(=O)[C@H](CCCCN)NC(=O)[C@H](CCC(=O)O)NC(=O)[C@@H](N)CCCCN)C(=O)O [Peptide 10, Lys-GIu-Lys-Lys-OH] (H-KEKK-OH)	28	40	15.5	37.7	22.9	16.3	25.2	21.1	26.6	22		79
CC(C)C[C@H](NC(=O)[C@@H](N)CCC(=O)O)C(=O)N[C@H](C(=O)N[C@@H](C)C(=O)O)C(C)C [Peptide 13, GIu-Leu-VaI-AIa-OH] (H-ELVA-OH)	55	65	20.9	32.8						40		
